# Measured values reported in patent US20140066365A1, “USE OF CALIXARENES ASSOCIATED WITH AN ANTIBIOTIC IN THE TREATMENT OF BACTERIAL INFECTIONS” (priority 2011, published 2014).
# Where two headings read alike, the source gives them in different places.
# Key:
# Type in all cases: cell-based
# [1] = system: SaR3: Meticillin-Resistant Staphylococcus aureus; test: Antibiogram by the disk diffusion technique
# Experimental: (§1) The bacterial and antibiogramidentification is carried out by the VITEK 2 system (bioMérieux) and by the disk diffusion technique
# [2] = system: SaR4: Meticillin-Resistant Staphylococcus aureus; test: Antibiogram by the disk diffusion technique
# Experimental: as §1
# [3] = system: PaR5: Pseudomonas aeruginosa; test: Antibiogram by the disk diffusion technique; conditions: for Diameter / Results / CA-SFM Interpretation / CLSI Interpretation / EUCAST Interpretation: PaR5; for Diameter / Results: Table I1; for Results: against Dmin-Dmax; for diameter in mm: disk diffusion inhibition diameter, strain PaR5; for CA-SFM Interpretation / CLSI Interpretation / EUCAST Interpretation: disk diffusion; for CA-SFM Interpretation: versus critical diameter CA-SFM 2011; for CLSI Interpretation: versus critical diameter CLSI 2011; for EUCAST Interpretation: versus critical diameter EUCAST 2011, for ** antibiotics the disk load differs and the EUCAST interpretation is not applicable
# Experimental: as §1
# [4] = system: Escherichia coli, Staphylococcus aureus and Pseudomonas aeruginosa strains; test: Chessboard technique, summary statements over all strains and combinations tested; conditions: strain not stated
# Text: 1.3. Procedure: Chessboard Technique
# The same procedure is followed for the Cx1. […] Thus 64 ATB/Cx1 combinations are obtained.
# The FIC (Fractional Inhibitory Concentration Index) value is defined by the following formula: […]
# When FIC≦0.5, there is a synergistic effect between antibiotic A and antibiotic B.
# When 0.5<FIC≦1, there is an additive effect between antibiotic A and antibiotic B.
# When 1<FIC≦4, there is an indifferent effect between antibiotic A and antibiotic B.
# When FIC>4, there is an antagonistic effect between antibiotic A and antibiotic B.
# For each strain and each antibiotic/Cx1 combination, the experiments were repeated a minimum of 3 times.
# [5] = system: PaR3: Pseudomonas aeruginosa; test: Antibiogram, MIC by the VITEK 2 system; conditions: for CA-SFM Interpretation: Cc CA-SFM 2011; for CLSI Interpretation: Cc CLSI 2011; for EUCAST Interpretation: Cc EUCAST 2011
# Experimental: (§2) The bacterial and antibiogramidentification is carried out by the VITEK 2 system (bioMérieux)
# [6] = system: SaR1: Meticillin-Resistant Staphylococcus aureus without Associated Resistance; test: Antibiogram, MIC by the VITEK 2 system; conditions: SaR1
# Experimental: as §2
# [7] = system: EcR1: Penicillinase-Producing Escherichia coli without Associated Resistance; test: Antibiogram by the disk diffusion technique; conditions: Table A1
# Experimental: (§3) 5.1 EcR1: Penicillinase-Producing Escherichia coli without Associated Resistance The bacterial and antibiogramidentification is carried out by the VITEK 2 system (bioMérieux) and by the disk diffusion technique.
# [8] = system: EcR2: Cephalosporinase-Hyperproducing Strain of Escherichia coli; test: Antibiogram by the disk diffusion technique; conditions: for Results: EcR2, rows that print a diameter; for CA-SFM Interpretation / CLSI Interpretation / EUCAST Interpretation: from diameter; for CA-SFM Interpretation: CA-SFM 2011; for CLSI Interpretation: CLSI 2011; for EUCAST Interpretation: EUCAST 2011
# Experimental: The bacterial and antibiogramidentification is carried out by the VITEK 1 system (bioMérieux) and by the disk diffusion technique
# [9] = system: Pseudomonas aeruginosa strain PaR2; test: microbe, parasite or virus in culture; conditions: Pseudomonas aeruginosa, antibiotic alone (second value of cell), read-out: MIC
# Text: (§4) The MICs of the antibiotics were previously defined for each strain, by the method of microdilution in a liquid medium (CLSI (Clinical and Laboratory Standards Institute), 2003).
# [10] = system: EcR3: ESBL-Producing Escherichia coli; test: Antibiogram by the disk diffusion technique
# Experimental: The bacterial and antibiogramidentification is carried out by the VITEK 2 system (bioMerieux) and by the disk diffusion technique
# [11] = system: EcR1: Penicillinase-Producing Escherichia coli without Associated Resistance; test: Antibiogram, MIC by the VITEK 2 system; conditions: for CA-SFM Interpretation: EcR1, MIC against Cc CA-SFM 2011; for CLSI Interpretation: EcR1, MIC against Cc CLSI 2011; for EUCAST Interpretation: EcR1, MIC against Cc EUCAST 2011; for Results: EcR1, interpretation of the MIC, Table A1; for MIC: Escherichia coli
# Experimental: as §3
# [12] = system: PaR2: Pseudomonas aeruginosa; conditions: for CA-SFM Interpretation: Cd CA-SFM 2011; for CLSI Interpretation: Cd CLSI 2011; for EUCAST Interpretation: Cd EUCAST 2011; for Diameter: Table G1; for Results: Table G1, against Dmin-Dmax; for diameter in mm: Table G2
# Experimental: as §1
# [13] = system: SaR1: Meticillin-Resistant Staphylococcus aureus without Associated Resistance; test: Antibiogram, inhibition diameter (Table D1)
# Experimental: as §2
# [14] = system: penicillinase-producing strain of Escherichia coli without associated resistance (EcR1); test: MIC of the compounds used alone, microdilution in a liquid medium (CLSI); conditions: Escherichia coli, antibiotic alone (second value of cell), read-out: Initial MICs
# Text: as §4
# [15] = system: Pseudomonas aeruginosa strain PaR3; test: as above; conditions: Pseudomonas aeruginosa, antibiotic alone (second value of cell), read-out: MIC
# Text: as §4
# [16] = system: cephalosporinase-hyperproducing strain of Escherichia coli (EcR2); test: as above; conditions: Escherichia coli, antibiotic alone (second value of cell), read-out: Initial MICs
# Text: as §4
# [17] = system: ESBL-producing strain of Escherichia coli, having an associated resistance to the aminoglycosides (EcR3); test: as above; conditions: Escherichia coli, antibiotic alone (second value of cell), read-out: Initial MICs
# Text: as §4
# [18] = system: Escherichia coli strain ATCC 25922 (wild type); test: as above; conditions: Escherichia coli, ATCC25922; antibiotic alone (second value of cell); E. coli ATCC 25922; read-out: Initial MICs
# Text: as §4
# [19] = system: mucoid strain of Pseudomonas aeruginosa PaR5; test: as above; conditions: Pseudomonas aeruginosa, antibiotic alone (second value of cell), read-out: MIC
# Text: as §4
# [20] = system: Pseudomonas aeruginosa strain ATCC 27853 (wild type); test: as above; conditions: Pseudomonas aeruginosa, ATCC27853; antibiotic alone (second value of cell); P. aeruginosa ATCC 27853; read-out: MIC
# Text: as §4
# [21] = Pseudomonas aeruginosa, Table H2, read-out: MIC
# [22] = EcR1, Table A2, read-out: MIC mg/L (diameter in mm)
# [23] = EcR1, VITEK 2, Table A1, read-out: MIC
smiles,measurement,setting,value
NC[C@H]1O[C@H](O[C@H]2[C@H](O)[C@@H](O[C@H]3O[C@H](CO)[C@@H](O)[C@H](N)[C@H]3O)[C@H](N)C[C@@H]2N)[C@H](N)C[C@@H]1O [Tobramycin],CA-SFM Interpretation,[1]; Cd CA-SFM 2011,Resistant
same,CLSI Interpretation,[1]; Cd CLSI 2011,Resistant
same,EUCAST Interpretation,[1]; Cd EUCAST 2011,Resistant
same,Diameter,[1]; Table E1,6 mm
same,Results,"[1]; Table E1, against Dmin Dmax",Resistant
same,diameter in mm,[1]; Table E2,6 mm
same,Diameter,[2]; Table F1,6
same,Results,"[2]; Table F1, rows with a diameter",Resistant
same,Diameter,"[2]; Table F2, diameters",6 mm
same,CA-SFM Interpretation,"[2]; from diameter, CA-SFM 2011",Resistant
same,CLSI Interpretation,"[2]; from diameter, CLSI 2011",Resistant
same,EUCAST Interpretation,"[2]; from diameter, EUCAST 2011",Resistant
same,Diameter,[3],28 mm
same,Results,[3],Susceptible
same,diameter in mm,[3],28 mm
same,CA-SFM Interpretation,[3],Susceptible
same,CLSI Interpretation,[3],Susceptible
same,EUCAST Interpretation,[3],Susceptible
same,interaction between the antibiotic and Cx1,[4],synergism
same,CA-SFM Interpretation,[5],Resistant
same,CLSI Interpretation,[5],Resistant
same,EUCAST Interpretation,[5],Resistant
same,MIC,[5]; [21],≥ 16 mg/L
same,MIC,[5]; Table H1,≧16
same,Results,[5]; Table H1,Resistant
same,CA-SFM Interpretation,[6]; Cc CA-SFM 2011,Susceptible
same,CLSI Interpretation,[6]; Cc CLSI 2011,Susceptible
same,EUCAST Interpretation,[6]; Cc EUCAST 2011,Susceptible
same,Results,"[6]; Table D1, from MIC",Susceptible
same,MIC mg/L,[6]; Table D2,≦1 mg/L
same,MIC,"[6]; Staphylococcus aureus, Table D1, read-out: MIC",≤ 1 mg/L
same,Diameter,"[7]; EcR1, disk diffusion",19 mm
same,Results,"[7]; EcR1, interpretation of the diameter against Dmin Dmax",Susceptible
same,Diameter,"[8]; EcR2, disk diffusion, Table B1",10
same,Results,[8]; Table B1,Resistant
same,Diameter,"[8]; EcR2, Table B2, diameters",10 mm
same,CA-SFM Interpretation,[8]; EcR2,Resistant
same,CLSI Interpretation,[8]; EcR2,Resistant
same,EUCAST Interpretation,[8]; EcR2,Resistant
same,MIC,[9],1 mg/L
same,CA-SFM Interpretation,[10]; Cd CA-SFM 2011,Resistant
same,CLSI Interpretation,[10]; Cd CLSI 2011,Resistant
same,EUCAST Interpretation,[10]; Cd EUCAST 2011,Resistant
same,Diameter,[10]; Table C1,6 mm
same,Results,"[10]; Table C1, against Dmin Dmax",Resistant
same,diameter in mm,[10]; Table C2,6 mm
same,CA-SFM Interpretation,[11],Susceptible
same,CLSI Interpretation,[11],Susceptible
same,EUCAST Interpretation,[11],Susceptible
same,Results,[11],Susceptible
same,MIC,[11]; [22],≤ 1 mg/L
same,MIC,[11]; [23],≤ 1 mg/L
same,CA-SFM Interpretation,[12],Susceptible
same,CLSI Interpretation,[12],Susceptible
same,EUCAST Interpretation,[12],Susceptible
same,Diameter,[12],24 mm
same,Results,[12],Susceptible
same,diameter in mm,[12],24 mm
same,Diameter,[13],22 mm
same,Results,"[13]; from diameter, against Dmin Dmax",Susceptible
same,MIC,[14],0.25 mg/L
same,MIC,[15],64 mg/L
same,MIC,[16],4 mg/L
same,MIC,[17],4 mg/L
same,MIC,[18],0.25 mg/L
same,MIC,[19],1 mg/L
same,MIC,[20],0.5 mg/L
CC(C)(O/N=C(\C(=O)N[C@@H]1C(=O)N2C(C(=O)[O-])=C(C[n+]3ccccc3)CS[C@H]12)c1csc(N)n1)C(=O)O [Ceftazidime],Diameter,[3],32 mm
same,Results,[3],Susceptible
same,diameter in mm,[3],32 mm
same,CA-SFM Interpretation,[3],Susceptible
same,CLSI Interpretation,[3],Susceptible
same,EUCAST Interpretation,[3],Susceptible
same,interaction between the antibiotic and Cx1,[4],synergism
same,CA-SFM Interpretation,[5],Susceptible
same,CLSI Interpretation,[5],Susceptible
same,EUCAST Interpretation,[5],Susceptible
same,MIC,[5]; [21],4 mg/L
same,MIC,[5]; Table H1,4 mg/L
same,Results,[5]; Table H1,Susceptible
same,Diameter,"[8]; EcR2, disk diffusion, Table B1",20
same,Results,[8]; Table B1,Intermediate
same,Diameter,"[8]; EcR2, Table B2, diameters",20 mm
same,CA-SFM Interpretation,[8]; EcR2,Resistant
same,CLSI Interpretation,[8]; EcR2,Intermediate
same,EUCAST Interpretation,[8]; EcR2,Intermediate
same,MIC,[9],8 mg/L
same,CA-SFM Interpretation,[11],Susceptible
same,CLSI Interpretation,[11],Susceptible
same,EUCAST Interpretation,[11],Susceptible
same,Results,[11],Susceptible
same,MIC,[11]; [22],≤ 1 mg/L
same,MIC,[11]; [23],≤ 1 mg/L
same,CA-SFM Interpretation,[12],Susceptible
same,CLSI Interpretation,[12],Susceptible
same,EUCAST Interpretation,[12],Susceptible
same,Diameter,[12],23 mm
same,Results,[12],Susceptible
same,diameter in mm,[12],23 mm
same,MIC,[14],0.25 mg/L
same,MIC,[15],16 mg/L
same,MIC,[16],8 mg/L
same,MIC,[17],1 mg/L
same,MIC,[18],0.125 mg/L
same,MIC,[19],8 mg/L
same,MIC,[20],4 mg/L
